The record followed here is ChEMBL document CHEMBL1177713, “Discovery of 3-[2-(imidazo[1,2-b]pyridazin-3-yl)ethynyl]-4-methyl-N-{4-[(4-methylpiperazin-1-yl)methyl]-3-(trifluoromethyl)phenyl}benzamide (AP24534), a potent, orally active pan-inhibitor of breakpoint cluster region-abelson (BCR-ABL) kinase including the T315I gatekeeper mutant” (J Med Chem, 2010).

Structures are written as SMILES.

A short description of data set [1]: Clearance in CD rat at 5 mg/kg, iv by LC-MS/MS analysis. The data set is classed as ADME, organism-based. Further details: dose 5 mg/kg, route intravenous. The note with it: in vivo.
Data set [2] is described as follows: Volume of distribution in CD rat at 5 mg/kg, iv by LC-MS/MS analysis. The data set is classed as ADME, organism-based. Set-up: dose 5 mg/kg, route intravenous. The note with it: in vivo.
Data set [3] is described as follows: Half life in CD rat at 5 mg/kg, iv by LC-MS/MS analysis. The data set is classed as ADME, organism-based. The note with it: in vivo. Set-up: dose 5 mg/kg, route intravenous.
Data set [4] relates to Rattus norvegicus. Nature of the data set: Dose normalized AUC (0 to 24 hrs) in CD rat at 15 mg/kg, po by LC-MS/MS analysis. The data set is classed as ADME, organism-based. Set-up: time < 24 hr, dose 15 mg/kg, route oral. The note with it: in vivo.
Data set [5] is described as follows: (§1) Cmax in CD rat at 15 mg/kg, po by LC-MS/MS analysis. As to conditions: CD, in vivo. The data set is classed as ADME, organism-based. Set-up: dose 15 mg/kg, route oral.
A short description of data set [6]: Tmax in CD rat at 15 mg/kg, po by LC-MS/MS analysis. Format: ADME, organism-based. Further details: dose 15 mg/kg, route oral. As to conditions: in vivo.
A short description of data set [7]: Half life in CD rat at 15 mg/kg, po by LC-MS/MS analysis. Format: ADME, organism-based. Further details: dose 15 mg/kg, route oral. The note with it: in vivo.
Data set [8] is described as follows: Oral bioavailability in CD rat at 15 mg/kg by LC-MS/MS analysis. The note with it: in vivo. The data set is classed as ADME, organism-based.
Data set [9] concerns BaF3. Nature of the data set: cells. As to conditions: Mus musculus, BaF3, 72 h.
Description: Antiproliferative activity against mouse BA/F3 cells expressing wild type ABL after 3 days by MTS assay
Data set [10] relates to BaF3. Description: cells. The note with it: Mus musculus, BaF3, 72 h. The source holds these as a separate data set.
Description: Antiproliferative activity against mouse BA/F3 cells expressing ABL T315I mutant after 3 days by MTS assay
Data set [11] relates to BaF3. Description: cells. The note with it: Mus musculus, BaF3, 72 h. The source holds these as a separate data set.
Description: Antiproliferative activity against mouse BA/F3 cells after 3 days by MTS assay
The subject of data set [12] is BaF3. Description: cells. The note with it: Mus musculus, BaF3, 72 h. This is another data set of the same source.
Description: Antiproliferative activity against mouse BA/F3 cells expressing wild type ABL after 3 days by MTS assay in presence of 340 uM human serum albumin
Data set [13] deals with Mus musculus. Description: Plasma concentration in mouse at 30 mg/kg, po after 24 hrs by LC-MS/MS analysis.
Data set [14] concerns Mus musculus. Description: Plasma concentmouseion in CD mouse at 30 mg/kg, po after 2 hrs by LC-MS/MS analysis.
Data set [15] relates to Mus musculus. Description: Plasma concentmouseion in CD mouse at 30 mg/kg, po after 6 hrs by LC-MS/MS analysis.
For another data set, the system named is K562. Nature of the data set: cells. As to conditions: Homo sapiens, K562, 72 h.
Data set [16] can be described thus: Cmax in mouse at 30 mg/kg, po by LC-MS/MS analysis. The note with it: in vivo.
Data set [17] can be described thus: Half life in mouse at 30 mg/kg, po by LC-MS/MS analysis. As to conditions: in vivo.
The nature of data set [18]: AUC (0 to 24 hrs) in mouse at 30 mg/kg, po by LC-MS/MS analysis. As to conditions: plasma.
The test system of data set [19] is Rattus norvegicus. The data set is described as §1. The data set is classed as ADME, organism-based. Set-up: dose 15 mg/kg, route oral. As to conditions: in vivo, BLD = below limit of detection.

Description for K562: Antiproliferative activity against human K562 cells expressing wild type ABL after 3 days by MTS assay

Usually clearance stands for the rate of elimination divided by the concentration. One may read the Vd as the apparent volume that relates the amount in the body to the concentration in plasma or blood. A high value points to extensive tissue distribution. Usually half-life stands for how long it takes for the measured level to halve. Read a low half-life as rapid decline. One may read the Cmax as the highest concentration seen after dosing. Broadly, the Tmax is the time at which the peak concentration occurs. In general, bioavailability refers to the share of a dose that reaches the circulation, judged against a reference dose that is usually intravenous. The low end stands for little systemic uptake, the high end for much systemic uptake. The term IC50 denotes the concentration needed to halve the response being measured. Consider `Cc1ccc(C(=O)Nc2cc(-n3ccnc3)cc(C(F)(F)F)c2)cc1C#Cc1cnc2ccccn12`, for which the clearance in data set [1] was 1.33 mL/min/kg. In addition, the distribution volume (Vd) in data set [2] was found to be 1 L/kg. Moreover, the half-life in [3] was 9.1 h; in data set [7], 21.6 h. The compound further returned an AUC in the data set with Rattus norvegicus [4] of 5745.9 ng·h/mL/mg/kg. The Cmax in data set [5] is 2350 ng/mL. The Tmax in data set [6] stood at 6 h. In addition, the bioavailability in [8] was 42.4%. Besides, the IC50 in the data set with BaF3 [9] is 8 nM; with BaF3 [10], 471 nM; with BaF3 [11] it was 9840 nM; in the data set on BaF3 [12], 51 nM.
With `CN1CCN(Cc2ccc(NC(=O)c3ccc(F)c(C#Cc4cnc5cccnn45)c3)cc2C(F)(F)F)CC1`, the clearance in data set [1] is 6.17 mL/min/kg. The distribution volume (Vd) in data set [2] is 3.1 L/kg. The results for the half-life in [3] and in [7] were 5.9 h and 11.6 h, respectively. This compound also registered an AUC with Rattus norvegicus [4] of 1707.5 ng·h/mL/mg/kg. In addition, in [5], the concentration peaked (Cmax) at 1180 ng/mL. The time of peak concentration (Tmax) in [6] was 6 h. In addition, the bioavailability in data set [8] came to 62.3%. Moreover, the figures for the concentration for half-maximal inhibition (IC50) with BaF3 [9], in the data set on BaF3 [10] and in the data set on BaF3 [11] were 6.1 nM, 35 nM and 6290 nM, respectively. In the data set with Mus musculus [13], this compound returned a concentration at 24 h of 163 ng/mL. Moreover, the concentration at 2 h in the data set on Mus musculus [14] was found to be 2480 ng/mL. The compound also returned a concentration at 6 h in the data set with Mus musculus [15] of 2100 ng/mL.
As to `Cc1cn(-c2cc(NC(=O)c3ccc(C)c(/C=C/n4cnc5c(N)ncnc54)c3)cc(C(F)(F)F)c2)cn1`, the IC50 was 295 nM with BaF3 [10] and 1.4 nM with K562.
For the compound `CCN1CCN(Cc2ccc(NC(=O)c3ccc(C)c(C#Cc4cnc5cccnn45)c3)cc2C(F)(F)F)CC1`, in [1], the clearance was 17 mL/min/kg. Moreover, the Vd in data set [2] came to 13.1 L/kg. The half-life in data set [3] was 8.9 h; in data set [7], 22.3 h. The compound further registered an AUC with Rattus norvegicus [4] of 518 ng·h/mL/mg/kg. Moreover, in [5], the Cmax was 215 ng/mL. The Tmax in [6] amounted to 6 h. For the same compound, the bioavailability in data set [8] stood at 53%. The figures for the IC50 in the data set on BaF3 [9], in the data set with BaF3 [10] and in the data set with BaF3 [11] were 1 nM, 7.3 nM and 1160 nM, respectively. This compound registered a concentration at 24 h in the data set with Mus musculus [13] of 8.8 ng/mL. This compound registered a concentration at 2 h with Mus musculus [14] of 622 ng/mL. For the same compound, the concentration at 6 h in the data set on Mus musculus [15] was found to be 387 ng/mL.
By AUC(0-t) is commonly meant the area under the concentration-time curve up to a stated or last time point. Compound `Cc1ccc(C(=O)Nc2ccc(CN3CCN(C)CC3)c(C(F)(F)F)c2)cc1C#Cc1cnc2cnccn12` showed a clearance in [1] of 48.3 mL/min/kg. In data set [2], this compound gave a Vd of 14.7 L/kg. The half-life in data set [3] is 3.5 h; in data set [7], 5 h; in data set [17] it was 2.7 h. This compound registered an AUC with Rattus norvegicus [4] of 57 ng·h/mL/mg/kg. The Cmax stood at 57.8 ng/mL in data set [5] and 521 ng/mL in data set [16]. In data set [6], the Tmax was determined as 4 h. The same compound yielded a bioavailability in data set [8] of 16.7%. The concentration for half-maximal inhibition (IC50) with BaF3 [9] is 0.9 nM; with BaF3 [10], 13 nM; in the data set on BaF3 [11], 1290 nM. The same compound yielded an AUC(0-t) at 24 h in data set [18] of 2690 ng·h/mL.
`Cc1ccc(C(=O)Nc2ccc(CN3CCN(C)CC3)c(C(F)(F)F)c2)cc1C#Cc1cnc2[nH]c(=O)[nH]c2c1`: in [1], the clearance was 40.7 mL/min/kg. Further, in data set [2], the Vd came out at 17.7 L/kg. Further, the half-life in [3] was 5 h. Besides, in the data set on Rattus norvegicus [4] (BLD = below limit of detection), the AUC result was “BLD”. Further, the Cmax result in the data set on Rattus norvegicus [19] is on record as “BLD”. The 50% inhibitory concentration (IC50) in the data set on BaF3 [9] was 3.9 nM; in the data set on BaF3 [10], 31 nM; with BaF3 [11], 1860 nM.
For `CN1CCN(Cc2ccc(NC(=O)c3ccc(Cl)c(C#Cc4cnc5cccnn45)c3)cc2C(F)(F)F)CC1`, in data set [1], the clearance was 19.7 mL/min/kg. For the same compound, in data set [2], the volume of distribution (Vd) amounted to 16.7 L/kg. The values for the half-life in data set [3], in data set [7] and in data set [17] were 9.9 h, 20.2 h and 2.9 h, respectively. This compound also gave an AUC in the data set with Rattus norvegicus [4] of 673.8 ng·h/mL/mg/kg. The Cmax came out at 302 ng/mL in data set [5] and 441 ng/mL in data set [16]. The Tmax in data set [6] is 6 h. Besides, the bioavailability in data set [8] was found to be 79.2%. Besides, the concentration for half-maximal inhibition (IC50) with BaF3 [9] worked out at 2.5 nM; in the data set with BaF3 [10] it was 8.6 nM; with BaF3 [11], 1870 nM. Besides, the exposure AUC(0-t) at 24 h in data set [18] turned out to be 6080 ng·h/mL.
On to `Cc1ccc(C(=O)Nc2ccc(CN3CCN(CCO)CC3)c(C(F)(F)F)c2)cc1C#Cc1cnc2cccnn12`, for which the clearance in [1] was 25.5 mL/min/kg. Moreover, the Vd in [2] was 7.7 L/kg. For the same compound, the half-life is 3.5 h in data set [3], 3.4 h in [7] and 2.4 h in [17]. This compound also gave an AUC with Rattus norvegicus [4] of 145.3 ng·h/mL/mg/kg. For the same compound, the results for the Cmax in [5] and in data set [16] were 164 ng/mL and 1330 ng/mL, respectively. The time of peak concentration (Tmax) in data set [6] is 4 h. Moreover, the bioavailability in data set [8] turned out to be 22.3%. For the same compound, the IC50 in the data set with BaF3 [9] came to 1.5 nM; in the data set on BaF3 [10], 14 nM; in the data set with BaF3 [11], 1680 nM. The AUC(0-t) at 24 h in [18] is 13700 ng·h/mL.
As to `Cc1ccc(C(=O)Nc2ccc(CN3CCN(C)CC3)c(C(F)(F)F)c2)cc1C#Cc1cnc2ccccn12`, the clearance in data set [1] was 12.5 mL/min/kg. This compound gave a distribution volume (Vd) in data set [2] of 11 L/kg. Further, the figures for the half-life in [3], in [7] and in data set [17] were 10.2 h, 24.7 h and 2.9 h, respectively. For the same compound, in the data set with Rattus norvegicus [4], the AUC came to 386.3 ng·h/mL/mg/kg. Further, the Cmax in data set [5] came out at 149 ng/mL; in data set [16] it was 986 ng/mL. Besides, the Tmax in data set [6] was 6 h. Also, the bioavailability in data set [8] came out at 29%. Moreover, the IC50 came out at 3.6 nM with BaF3 [9], 26 nM with BaF3 [10], 1570 nM in the data set on BaF3 [11] and 5.9 nM with BaF3 [12]. In data set [18], the AUC(0-t) at 24 h stood at 11300 ng·h/mL.
In data set [1], `Cc1ccc(C(=O)Nc2ccc(CN3CCN(C)CC3)c(C(F)(F)F)c2)cc1C#Cc1cnc2[nH]ccc2c1` gave a clearance of 20.8 mL/min/kg. The compound further showed a volume of distribution (Vd) in [2] of 19.6 L/kg. Besides, the half-life in data set [3] is 10.9 h; in data set [7], 14.3 h. Also, in the data set on Rattus norvegicus [4], the AUC came to 119 ng·h/mL/mg/kg. In data set [5], this compound gave a Cmax of 71 ng/mL. The Tmax in data set [6] was 6 h. Moreover, in data set [8], the bioavailability is 15%. The IC50 is 4.4 nM with BaF3 [9], 14 nM in the data set with BaF3 [10] and 2020 nM with BaF3 [11].
